Measured values published in US11814367B2, “Inhibitors of glycogen synthase 1 (GYS1) and methods of use thereof” (Maze Therapeutics, Inc., priority 2021, dated 2023).
pIC50: −log10 of the molar value.

Legend:
[1] = test system: hGYS1 enzyme / glycogen synthesis in HeLa cells; test: GYS1 cell based assay (glycogen synthesis, Glucose-glo); set-up: species or system human; conditions: Homo sapiens, HeLa, 24 h, 24 h incubation, 20 mM glucose, geometric mean of at least 2 runs
In short: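 HeLa cells starved 24 h in medium containing only 1× Glutamax were plated onto compound in medium with 20 mM glucose (1% DMSO final) for 24 h, 37 °C, 5% CO2. Acid lysates were Tris-quenched, glucoamylase-digested (pH 5.3, 1 h, 37 °C) and read by Glucose-glo luminescence. IC50 came from Hill fits, as geometric mean of ≥2 runs.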

[2] = target: hGYS1 enzyme (recombinant hGYS1/GN1 protein) (Homo sapiens (Human), UniProt P13807); test: GYS1 coupled enzyme assay (PK/LDH); assay type: biochemical; conditions: hGYS1/GN1 50 nM, UDP-Glucose 0.8 mM, G6P 1 mM; geometric mean of at least 2 runs
hGYS1 enzyme (recombinant hGYS1/GN1 protein), sequence (P13807 whole entry): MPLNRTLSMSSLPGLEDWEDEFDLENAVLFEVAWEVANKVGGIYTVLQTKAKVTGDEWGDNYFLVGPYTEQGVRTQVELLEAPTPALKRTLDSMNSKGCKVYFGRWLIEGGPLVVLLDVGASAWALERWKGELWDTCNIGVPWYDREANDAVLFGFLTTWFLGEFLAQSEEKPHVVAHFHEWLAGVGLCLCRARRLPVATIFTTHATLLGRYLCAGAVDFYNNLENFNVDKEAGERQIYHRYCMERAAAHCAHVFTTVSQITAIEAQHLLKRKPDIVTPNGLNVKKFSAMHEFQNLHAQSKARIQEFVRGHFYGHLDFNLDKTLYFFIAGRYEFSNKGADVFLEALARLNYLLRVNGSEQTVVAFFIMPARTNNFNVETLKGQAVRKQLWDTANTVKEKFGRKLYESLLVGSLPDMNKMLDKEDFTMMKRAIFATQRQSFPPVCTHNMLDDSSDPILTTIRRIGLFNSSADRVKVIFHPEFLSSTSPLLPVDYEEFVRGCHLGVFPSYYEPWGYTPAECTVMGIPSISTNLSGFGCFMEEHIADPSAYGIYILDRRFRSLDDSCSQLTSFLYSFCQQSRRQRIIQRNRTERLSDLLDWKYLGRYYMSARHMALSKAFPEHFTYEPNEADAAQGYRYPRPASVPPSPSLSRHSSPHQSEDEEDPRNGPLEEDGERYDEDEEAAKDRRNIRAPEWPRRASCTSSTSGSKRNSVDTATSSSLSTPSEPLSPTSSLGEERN
hGYS1 enzyme (recombinant hGYS1/GN1 protein), sequence (P46976 whole entry partner): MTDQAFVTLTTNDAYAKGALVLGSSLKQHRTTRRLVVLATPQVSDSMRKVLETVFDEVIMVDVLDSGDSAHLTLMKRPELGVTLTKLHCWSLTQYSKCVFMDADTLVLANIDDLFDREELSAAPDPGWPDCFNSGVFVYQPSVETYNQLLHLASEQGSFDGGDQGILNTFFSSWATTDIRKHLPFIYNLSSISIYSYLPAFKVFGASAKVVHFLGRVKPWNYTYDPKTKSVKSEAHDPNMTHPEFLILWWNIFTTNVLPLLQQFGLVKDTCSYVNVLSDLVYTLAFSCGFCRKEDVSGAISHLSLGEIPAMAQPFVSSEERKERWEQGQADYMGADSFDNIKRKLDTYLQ

[3] = target: hGYS2 enzyme (recombinant hGYS2/GN1 protein) (Homo sapiens (Human), UniProt P54840); test: GYS2 coupled enzyme assay (PK/LDH); assay type: biochemical; conditions: geometric mean of at least 2 assay runs on separate days, read-out: Avg_IC50
hGYS2 enzyme (recombinant hGYS2/GN1 protein), sequence (P54840 whole entry): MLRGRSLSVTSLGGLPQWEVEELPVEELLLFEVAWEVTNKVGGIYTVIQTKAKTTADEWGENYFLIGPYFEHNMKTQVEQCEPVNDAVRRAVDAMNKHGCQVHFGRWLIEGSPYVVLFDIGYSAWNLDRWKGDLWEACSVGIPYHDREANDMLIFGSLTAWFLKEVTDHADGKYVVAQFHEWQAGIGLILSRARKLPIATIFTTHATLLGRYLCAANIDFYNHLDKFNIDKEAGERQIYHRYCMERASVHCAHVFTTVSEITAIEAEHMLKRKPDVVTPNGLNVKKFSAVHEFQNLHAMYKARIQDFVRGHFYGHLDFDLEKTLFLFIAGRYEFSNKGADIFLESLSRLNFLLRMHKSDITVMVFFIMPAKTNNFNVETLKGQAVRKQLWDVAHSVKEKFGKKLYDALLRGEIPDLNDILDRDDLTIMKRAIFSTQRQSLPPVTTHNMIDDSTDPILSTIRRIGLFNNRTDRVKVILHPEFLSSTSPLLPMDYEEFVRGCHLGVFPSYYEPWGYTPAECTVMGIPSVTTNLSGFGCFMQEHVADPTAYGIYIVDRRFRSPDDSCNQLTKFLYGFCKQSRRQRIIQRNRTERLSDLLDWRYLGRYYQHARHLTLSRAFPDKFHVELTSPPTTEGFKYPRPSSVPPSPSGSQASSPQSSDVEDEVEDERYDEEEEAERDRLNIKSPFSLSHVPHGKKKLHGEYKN
hGYS2 enzyme (recombinant hGYS2/GN1 protein), sequence (P46976 whole entry partner): as the sequence (P46976 whole entry partner) above
In short: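 Read-out: NADH loss at 340 nm, read each minute for 10 min, slope normalized to controls, duplicate % inhibition fit to Hill (0–100). Enzyme: 200 nM hGYS2/GN1; substrate 2 mM UDP-glucose plus 0.2% glycogen and 2 mM G6P; pH 7.5 Tris, 2.5% DMSO.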

| Structure (SMILES) | pIC50 [1] | pIC50 [2] | pIC50 [3] |
| --- | --- | --- | --- |
| Cc1cn(CC(=O)N2C[C@H](F)C[C@H]2C(=O)N[C@@H](c2ccccc2)c2ccc(C3CC3)c(F)c2)c(=O)[nH]c1=O [Compound 442, (2S,4R)-N-[(S)-(4-cyclopropyl-3-fluorophenyl)(phenyl)methyl]-4-fluoro-1-[2-(5-methyl-2,4-dioxo-1,2,3,4-tetrahydropyrimidin-1-yl)acetyl]pyrrolidine-2-carboxamide] | 6.07 | 7.64 | < 4.00 |
| Cn1cc(CC(=O)N2C[C@H](F)C[C@H]2C(=O)N[C@@H](c2ccccc2)c2ccc(C3(C)CC3)c(F)c2)c2ccccc21 [Compound 563, (2S,4R)-4-fluoro-N-[(S)-[3-fluoro-4-(1-methylcyclopropyl)phenyl](phenyl)methyl]-1-[2-(1-methyl-1H-indol-3-yl)acetyl]pyrrolidine-2-carboxamide] | 6.11 | 7.20 | < 4.00 |
| CC(C)c1ccc([C@@H](NC(=O)[C@@H]2C[C@@H](F)CN2C(=O)CNC(=O)N(C)C)c2ccccc2)nc1 [Compound 250, (2S,4R)-1-{2-[(dimethylcarbamoyl)amino]acetyl}-4-fluoro-N-[(S)-phenyl[5-(propan-2-yl)pyridin-2-yl]methyl]pyrrolidine-2-carboxamide] | 5.90 | 7.37 | < 4.00 |
| CC(C)c1ccc([C@@H](NC(=O)[C@@H]2C[C@@H](F)CN2C(=O)Cc2n[nH]c(=O)n2C)c2ccccc2)nc1 [Compound 264, (2S,4R)-4-fluoro-1-[2-(4-methyl-5-oxo-4,5-dihydro-1H-1,2,4-triazol-3-yl)acetyl]-N-[(S)-phenyl[5-(propan-2-yl)pyridin-2-yl]methyl]pyrrolidine-2-carboxamide] | 5.37 | 6.89 | < 4.00 |
| Cn1nc(CC(=O)N2C[C@H](F)C[C@H]2C(=O)N[C@@H](c2ccccc2)c2ccc(C3CC3)c(F)c2)c2ccccc21 [Compound 459, (2S,4R)-N-[(S)-(4-cyclopropyl-3-fluorophenyl)(phenyl)methyl]-4-fluoro-1-[2-(1-methyl-1H-indazol-3-yl)acetyl]pyrrolidine-2-carboxamide] | 6.12 | 7.55 | < 4.00 |
| O=C(N[C@@H](c1ccccc1)c1ccc(C2CC2)c(F)c1)[C@@H]1C[C@@H](F)CN1C(=O)Cn1cnc2ccccc21 [Compound 417, (2S,4R)-1-(2-(1H-benzo[d]imidazol-1-yl)acetyl)-N—((S)-(4-cyclopropyl-3-fluorophenyl)(phenyl)methyl)-4-fluoropyrrolidine-2-carboxamide] | 6.35 | 7.64 | < 4.00 |
| CC(C)c1ccc([C@@H](NC(=O)[C@@H]2C[C@@H](F)CN2C(=O)Cn2ncc(N(C)C)n2)c2ccccc2)cc1F [Compound 378, (2S,4R)-1-{2-[4-(dimethylamino)-2H-1,2,3-triazol-2-yl]acetyl}-4-fluoro-N-[(S)-[3-fluoro-4-(propan-2-yl)phenyl](phenyl)methyl] pyrrolidine-2-carboxamide] | 6.77 | 8.22 | < 4.00 |
| CCn1c(=O)c(C)cn(CC(=O)N2C[C@H](F)C[C@H]2C(=O)N[C@@H](c2ccccc2)c2ccc(C(C)C)c(F)n2)c1=O [Compound 794, (2S,4R)-1-[2-(3-ethyl-5-methyl-2,4-dioxo-1,2,3,4-tetrahydropyrimidin-1-yl)acetyl]-4-fluoro-N-[(S)-[6-fluoro-5-(propan-2-yl)pyridin-2-yl](phenyl)methyl] pyrrolidine-2-carboxamide] | 7.40 | 8.70 | < 4.00 |
| CC(C)c1ccc([C@@H](NC(=O)[C@@H]2C[C@@H](F)CN2C(=O)Cn2nccc2C(F)F)c2ccccc2)nc1F [Compound 783, (2S,4R)-1-{2-[5-(difluoromethyl)-1H-pyrazol-1-yl]acetyl}-4-fluoro-N-[(S)-[6-fluoro-5-(propan-2-yl)pyridin-2-yl](phenyl)methyl] pyrrolidine-2-carboxamide] | 7.10 | 8.30 | < 4.00 |
| CC(=O)N(CCC(=O)N1C[C@H](F)C[C@H]1C(=O)N[C@@H](c1ccccc1)c1ccc(C(C)C)cc1)c1ccn(C)n1 [Compound 2, (2S,4R)-4-fluoro-1-{3-[N-(1-methyl-1H-pyrazol-3-yl)acetamido)propanoyl}-N-[(S)-phenyl[4-(propan-2-yl)phenyl]methyl]pyrrolidine-2-carboxamide] | 5.96 | 7.23 | < 4.00 |
| CC(C)c1ccc([C@@H](NC(=O)[C@@H]2C[C@@H](F)CN2C(=O)CNC(=O)N2CCN(C)CC2)c2ccccc2)nc1 [Compound 283, N-{2-[(2S,4R)-4-fluoro-2-{[(S)-phenyl[5-(propan-2-yl)pyridin-2-yl]methyl]carbamoyl}pyrrolidin-1-yl]-2-oxoethyl}-4-methylpiperazine-1-carboxamide] | 5.62 | 7.24 | < 4.00 |
| CC(C)c1ccc([C@@H](NC(=O)[C@@H]2C[C@@H](F)CN2C(=O)Cc2ccccn2)c2ccccc2)cc1F [Compound 349, (2S,4R)-4-fluoro-N-[(S)-[3-fluoro-4-(propan-2-yl)phenyl](phenyl)methyl]-1-[2-(pyridin-2-yl)acetyl]pyrrolidine-2-carboxamide] | 6.40 | 7.60 | < 4.00 |
| Cn1c(=O)n(CC(=O)N2C[C@H](F)C[C@H]2C(=O)N[C@@H](c2ccccc2)c2ccc(C3(C)CC3)c(F)n2)c2ccccc21 [Compound 600, (2S,4R)-4-fluoro-N-[(S)-[6-fluoro-5-(1-methylcyclopropyl)pyridin-2-yl](phenyl)methyl]-1-[2-(3-methyl-2-oxo-2,3-dihydro-1H-1,3-benzodiazol-1-yl)acetyl]pyrrolidine-2-carboxamide] | 6.21 | 7.44 | < 4.00 |
| O=C(N[C@@H](c1ccccc1)c1ccc(C2CC2)c(F)n1)[C@@H]1C[C@@H](F)CN1C(=O)Cn1cc(N2CCC2)nn1 [Compound 726, (2S,4R)-1-{2-[4-(azetidin-1-yl)-1H-1,2,3-triazol-1-yl]acetyl}-N-[(S)-(5-cyclopropyl-6-fluoropyridin-2-yl)(phenyl)methyl]-4-fluoropyrrolidine-2-carboxamide] | 6.27 | 7.52 | < 4.00 |
| CC(C)c1ccc([C@@H](NC(=O)[C@@H]2C[C@@H](F)CN2C(=O)Cc2nnc(CN(C)C)o2)c2ccccc2)cc1 [Compound 242, (2S,4R)-1-(2-{5-[(dimethylamino)methyl]-1,3,4-oxadiazol-2-yl}acetyl)-4-fluoro-N-[(S)-phenyl[4-(propan-2-yl)phenyl]methyl]pyrrolidine-2-carboxamide] | 5.94 | 7.10 | < 4.00 |
| CCn1c(=O)c(C)cn(CC(=O)N2C[C@H](F)C[C@H]2C(=O)N[C@H](c2ccccc2)c2ccc(C3CC(F)(F)C3)c(F)n2)c1=O [Compound 518, (2S,4R)-N-[(R)-[5-(3,3-difluorocyclobutyl)-6-fluoropyridin-2-yl](phenyl)methyl]-1-[2-(3-ethyl-5-methyl-2,4-dioxo-1,2,3,4-tetrahydropyrimidin-1-yl)acetyl]-4-fluoropyrrolidine-2-carboxamide] | 4.97 | 5.82 | < 4.00 |
| Cc1coc(CC(=O)N2C[C@H](F)C[C@H]2C(=O)N[C@@H](c2ccccc2)c2ccc(C3CC3)c(F)n2)n1 [Compound 314, (2S,4R)-N-[(S)-(5-cyclopropyl-6-fluoropyridin-2-yl)(phenyl)methyl]-4-fluoro-1-[2-(4-methyl-1,3-oxazol-2-yl)acetyl]pyrrolidine-2-carboxamide] | 6.00 | 7.20 | < 4.00 |
| CC(C)c1ccc([C@@H](NC(=O)[C@@H]2C[C@@H](F)CN2C(=O)[C@H](C)NC(=O)N(C)C)c2ccccc2)nc1F [Compound 405, (2S,4R)-1-[(2S)-2-[(dimethylcarbamoyl)amino]propanoyl]-4-fluoro-N-[(S)-[6-fluoro-5-(propan-2-yl)pyridin-2-yl](phenyl)methyl] pyrrolidine-2-carboxamide] | 6.31 | 7.70 | < 4.00 |
| Cc1cc([C@@H](NC(=O)[C@@H]2C[C@@H](F)CN2C(=O)Cc2cnn[nH]2)c2ccccc2)ccc1C(C)C [Compound 670, (2S,4R)-4-fluoro-N-[(S)-[3-methyl-4-(propan-2-yl)phenyl](phenyl)methyl]-1-[2-(1H-1,2,3-triazol-5-yl)acetyl]pyrrolidine-2-carboxamide] | 6.18 | 7.15 | < 4.00 |
| CC1(c2ccc([C@@H](NC(=O)[C@@H]3C[C@@H](F)CN3C(=O)Cc3n[nH]c4ccccc34)c3ccccc3)cc2F)CC1 [Compound 571, (2S,4R)-4-fluoro-N-[(S)-[3-fluoro-4-(1-methylcyclopropyl)phenyl](phenyl)methyl]-1-[2-(1H-indazol-3-yl)acetyl]pyrrolidine-2-carboxamide] | 6.03 | 7.12 | < 4.00 |
| CC1(c2ccc([C@@H](NC(=O)[C@@H]3C[C@@H](F)CN3C(=O)CNC(=O)N3CCOCC3)c3ccccc3)cc2F)CC1 [Compound 565, N-{2-[(2S,4R)-4-fluoro-2-{[(S)-[3-fluoro-4-(1-methylcyclopropyl)phenyl](phenyl)methyl]carbamoyl}pyrrolidin-1-yl]-2-oxoethyl}morpholine-4-carboxamide] | 5.92 | 7.32 | < 4.00 |
